Experimental data from patent US11324746B2, “Use of anagrelide for treating cancer” (Arovella Therapeutics Limited, priority 2014, dated 2022).
Converted amounts (≈) assume the structure as drawn. “And” between values parts separate entries of the source, which are not always exact repeats. Identical values can stand only once. Like-named read-outs stand apart in the source and are kept apart here.

How the values were obtained:
PDE III = details: cited from earlier work; for IC50 inhibition of PDE III / IC50: in vitro; for IC50: read-out: IC50 inhibition of PDE III
[1] = cited from earlier work; for peak plasma levels: after a typical 1 mg clinical dose
VEGF = details: ET patients; HU 1.25 g/day, IFN-α 1.5×10^6 units/day, anagrelide 1.5 mg/day; cited from earlier work
PF4 = details: ET patients; HU 1.25 g/day, IFN-α 1.5×10^6 units/day, anagrelide 1.5 mg/day; cited from earlier work
megakaryocytes = details: cited from earlier work
[2] = cited from earlier work
COV362 cells = assay: Transmigration assay of COV362 cells towards MK cultures (modified Boyden chamber); format: cell-based, human
Experimental: Transmigration assay—Transmigration of human ovarian cancer cells, COV362 cells (COVs), was examined in a well established model of cancer cell migration (Hart et al 2005) and Kramer et al 2013) which employed the modified Boyden chamber described above but using inserts with a larger 8μm pore PET membrane. […] In this case pre-expanded haematopoietic cells were grown for 7 days in MK medium in the wells of the companion plate prior to placement of the inserts. Inserts were then positioned inside these MK-containing wells or in parallel wells filled with and equivalent volume of MK medium alone. A suspension of 0.35 mL COVs cells made in plasma-free MK medium at a density of 2.86×10^5cells/ml was then loaded onto the inserts and allowed to trans-migrate through the PET membrane for up to 24 h at 37° C. in a tissue culture incubator. At various time points the transmigration assay was terminated by removing the insert from the well of the companion plate and aspirating its contents. After washing the inserts with phosphate-buffered saline (PBS) non-migrating cells attached to the upper side of the PET membrane were scraped off with cotton swabs soaked in PBS. […] Bright field digital photomicrographs were taken in five random fields at 100× magnification and the average number of cells per field was determined by manual counting.

[3] = system: megakaryocytes (MKs) from human umbilical cord blood-derived CD34+ haematopoietic cells; assay: Co-culture of COV362 cells and developing megakaryocytes (MK expansion, CD61 flow cytometry); format: cell-based; details: anagrelide 1 μM
Experimental: Cells and drug treatment—Megakaryocytes (MKs) were generated ex-vivo essentially as previously described (Ahluwalia M et al 2010). In brief, to promote terminal megakaryocytic differentiation pre-expanded human umbilical cord blood-derived CD34^+ haematopoietic cells were cultured for 7 days in Stemspan™ SFEM II medium (Stem Cell Technologies) supplemented with 1% human umbilical cord blood plasma and 40 ng/ml thrombopoietin (TPO) unless otherwise indicated (MK medium). […]
The human ovarian cancer cell line COV362 was grown in Iscove's modified Dulbecco's medium (IMDM) supplemented with 2 mM glutamine and 10% foetal bovine serum (FBS). Cell cultures were maintained at 37° C. in a humidified incubator under 5% CO2/95% air.
Co-culture experiments—Co-culture of COV362 cells (COVs) and developing MKs was carried out in a modified Boyden Chamber (BD Falcon, BD Biosciences, Oxford, UK) consisting of a cup-shaped cell culture insert resting inside the well of a 24-well companion plate, with the bottom of the insert made of a permeable microporous polyethylene terephthalate (PET) membrane having a pore size of 0.4 μm.
In experiments examining the effects of COVs on MK development, COVs were seeded in the companion plate at various cells densities and grown for 4 days prior to mounting the inserts. Then, the medium in the companion plate was removed and replaced with fresh MK medium. Immediately thereafter the pre-expanded haematopoietic cells were seeded in the insert. After seven days of co-culture the cells growing in the inserts were harvested for analysis of MK development.
Analysis of megakaryocyte development—Cell density was determined using a Casy TT Cell counter (Innovatis, Germany) set with a lower cut-off limit of ˜7.5 μm. MK-specific antigen expression was monitored by flow cytometry using a fluorescein isothiocyanate-conjugated anti-CD61 antibody (clone Y2/51, Dako, Ely, UK) as previously described (Wang G et al 2005). The number of MKs was calculated by multiplying the total number of cells in the culture by the fraction of CD61 positive cells.

[4] = cited from earlier work; remark: listed apart in the source
[5] = cited from earlier work; remark: listed apart in the source
cancer cells = details: mice; cited from earlier work
[6] = Aqueous solubility of anagrelide; format: physicochemical
[7] = up to concentration of 1 μM; cited from earlier work
[8] = system: various cancer cell lines; details: in vitro; WO2014/183673; read-out: IC50 apoptosis in cancer cell lines; cited from earlier work
[9] = cited from earlier work; remark: listed apart in the source
ovarian cancer = details: mouse models of ovarian cancer; cited from earlier work
[10] = human, in vivo; cited from earlier work

Compound: O=C1NC2=Nc3ccc(Cl)c(Cl)c3CN2C1O (stereo not drawn) [3-hydroxy anagrelide]
- PDEIII inhibitory potency relative to anagrelide (PDE III; Wang et al, 2005): ~40 fold
- cardiostimulant potency relative to the parent drug (PDE III): 40 fold
- IC50 inhibition of PDE III (PDE III): 0.2 ng/mL
- IC50 (PDE III): 0.7 nM
- peak plasma levels ([1]; listed as metabolite): 29 nM and ~8 ng/mL
- plasma concentrations of metabolite relative to parent drug ([1]; clinical practice, Martinez-Selles et al, 2013): 2-3 fold

Compound: NC(=O)NO [HU, hydroxyurea]
- VEGF levels after treatment (VEGF): Neither HU nor IFα brought PF4 and VEGF down
- PF4 levels after treatment (PF4): Neither HU nor IFα brought PF4 and VEGF down

Compound: O=C1CN2Cc3c(ccc(Cl)c3Cl)N=C2N1 [anagrelide]
- in vitro anti-megakaryocytic IC50 (megakaryocytes): 7 ng/mL
- IC50 (megakaryocytes; read-out: in vitro anti-megakaryocytic IC50): 26 nM
- IC50 inhibition of PDE III (PDE III): 8.2 ng/mL
- IC50 (PDE III): 32 nM
- aqueous solubility ([2]; between pH 4-8): ~1.0 µg/mL (≈ 3.9 µM)
- aqueous solubility ([2]; pH1): 236 µg/mL (≈ 922 µM)
- water solubility ([2]; pH7): ~1.0 µg/mL (≈ 3.9 µM)
- water solubility ([2]; pH of ~3): 250 µg/mL (≈ 976 µM)
- attractant properties for COVs of MK cultures grown with drug (COV362 cells; anagrelide 1 μM, overnight incubation (FIG. 3)): no attractant properties
- attractant properties for COVs of MKs grown with drug (COV362 cells; clinically relevant concentrations, 16 h (FIG. 4)): loss of attractant properties
- inhibition at 1 µM ([3]; Homo sapiens, 168 h, absence of COVs, 7 days, read-out: inhibition of thrombopoietin driven MK expansion): ~50%
- stimulatory effects of COVs on MK expansion ([3]; COVs seeded at 1000cells/mL): completely abolished
- expected increase in MK expansion with COVs ([3]; COVs seeded at 3000cells/mL): more than halved
- oral bioavailability [4]: less than 50%
- patients discontinuing drug treatment due to cardiovascular side-effects ([5]; Birgegard et al, 2004): ~25%
- patients with idiopathic cardiomyopathy ([5]; of 434 patients with essential thrombocythaemia and polycythemia vera, Jurgens et al 2004): 11
- circulation time of cancer cells (cancer cells): increase in circulation time of cancer cells
- FDA Biopharmaceutics Classification System class [6]: low solubility/high permeability
- apoptopic effects [7]: no apoptopic effects
- VEGF levels after treatment (VEGF): reduced the PF4 and VEGF levels to normal
- IC50 [8]: 100 nM
- PF4 levels after treatment (PF4): reduced the PF4 and VEGF levels to normal
- peak plasma levels [1]: 16 nM and ~4 ng/mL

Compound: Cc1ncc2n1-c1ccc(Cl)cc1C(c1ccccc1F)=NC2 [midazolam]
- bioavailablity ([9]; given orally): ~30%
- bioavailablity ([9]; intranasal spray): 87%

Compound: siltuximab: IL-6 antibody
- platelet count (ovarian cancer): significantly reduced
- tumour growth (ovarian cancer): significantly reduced
- upper respiratory infections, share of patients [10]: > 20%
